Data reported in paper PMC11878344 (Angewandte Chemie (International Ed. in English), 2025).
Read-outs that look alike come from different tables or passages of the source.

Key:
[1] = target: T1, NanoLuc luciferase MAGL fusion protein in HEK293A cells (Homo sapiens, UniProt Q99685); experiment: Cellular MAGL NanoBRET target engagement assay; format: cell-based; conditions: Table 2; mean of three independent measurements ± SD; read-out: HEK 293 nanoBRET IC50±SD
T1 construct: expressed in transfected cells
T1 sequence (Q99685 1-303): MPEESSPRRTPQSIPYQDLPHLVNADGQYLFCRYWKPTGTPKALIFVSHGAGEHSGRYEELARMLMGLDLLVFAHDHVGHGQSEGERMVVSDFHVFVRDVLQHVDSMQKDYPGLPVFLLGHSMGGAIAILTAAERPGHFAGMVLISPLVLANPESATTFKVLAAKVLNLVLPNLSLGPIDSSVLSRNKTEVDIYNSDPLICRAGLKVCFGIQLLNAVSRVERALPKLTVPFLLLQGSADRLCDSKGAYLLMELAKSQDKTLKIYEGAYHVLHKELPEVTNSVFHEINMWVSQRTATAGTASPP
Procedure: We, therefore, confirmed cellular MAGL target engagement in a nanoBRET assay using live HEK293 cells.[39] […] To overcome the low cellular potency of 4, we exploited the modular construction principle to modulate unfavorable physicochemical properties and investigated less polar, privileged head groups[23, 33, 40] (Supporting Information Table S4). […]
This assay was performed as first described before.[39]
Compounds were profiled by a novel cellular MAGL NanoBRET™ Target Engagement assay, which measures the apparent affinity of test compounds by competitive displacement of a Roche-developed Tracer (WO2021058443, Example 21)[21], reversibly bound to a NanoLuc® luciferase MAGL fusion protein in cells.
A HEK293A stable cell line expressing NanoLuc_MAGL was established at Roche and assigned as HEK293A_NanoLuc_MAGL clone #43. A fixed concentration of tracer is added to cells expressing the NanoLuc®_MAGL fusion protein to generate a BRET reporter complex. The introduction of competing compounds results in a dose-dependent decrease in NanoBRET™ energy transfer, which allows quantification of the intracellular affinity of the target protein for the […]
HEK293A_NanoLuc_MAGL clone #43 cells were cultured in DMEM (Gibco 31966) with 10% FBS and 800 ug/ml G418. The NanoBRET assay was performed by seeding 5000 cells/well in Costar low-volume white 384-well plate in assay buffer (1% FBS in HBSS), followed by adding 50 nM final concentration of tracer and serial dilutions of test compounds. After 2 hours of incubation, Nanoluciferase substrates and extracellular inhibitors were added following the manufacturer's protocol (Promega, #N2520), and the NanoBRET signaling were quantified with the Paradigm

human MAGL = target: T2, human MAGL (Homo sapiens, UniProt Q99685); experiment: In vitro MAGL inhibition assay (2-AG hydrolysis followed by mass spectrometry); format: biochemical
T2 sequence (Q99685 1-303): T1 sequence (Q99685 1-303)
Procedure: (§1) 4. Experimental Details of Biochemical Assays and Crystal Structure
(§2) In Vitro MAGL Inhibition Assay
(§3) Compounds were profiled for MAGL inhibitory activity by determining the enzymatic activity by following the hydrolysis of the natural substrate 2-arachidonoylglycerol (2-AG), resulting in arachidonic acid, which can be followed by mass spectrometry. The 2-AG assay was carried out in 384 well assay plates (PP, Greiner Cat# 784201) in a total volume of 20 µL. Compound dilutions were made in 100% DMSO (VWR Chemicals 23500.297) in a polypropylene plate in 3-fold dilution steps to give a final concentration range in the assay from 12.5 µM to 0.8 pM. 0.25µL compound dilutions (100% DMSO) were added to 9 µL MAGL in assay buffer (50 mM TRIS (GIBCO, 15567-027), 1 mM EDTA (Fluka, 03690-100 mL), 0.01% (v/v) Tween. After shaking, the plate was incubated for 15 min at RT. To start the reaction, 10 µL 2-arachidonoylglycerol in assay buffer was added. The final concentrations in the assay were 50 pM MAGL and 8 µM 2-arachidonoylglyerol. After shaking and 30 min incubation at RT, the reaction was quenched by the addition of 40µL of ACN containing 4 µM of d8-arachidonic acid. The amount of arachidonic acid was traced by an online SPE system (Agilent Rapidfire) coupled to a triple quadrupole mass spectrometer (Agilent 6460). A C18 SPE cartridge (G9205A) was used in an ACN/water liquid setup. The mass spectrometer was operated in negative electrospray mode following the mass transitions 303.1 → 259.1 for arachidonic acid and 311.1 → 267.0 for d8-arachidonic acid. The activity of the compounds was calculated based on the ratio of intensities [arachidonic acid / d8- […]
(§4) This assay was performed as first described before.[39] […]

mouse MAGL = target: T3, mouse MAGL (Mus musculus, UniProt O35678); experiment: as above; format: biochemical
T3 sequence (O35678 1-303): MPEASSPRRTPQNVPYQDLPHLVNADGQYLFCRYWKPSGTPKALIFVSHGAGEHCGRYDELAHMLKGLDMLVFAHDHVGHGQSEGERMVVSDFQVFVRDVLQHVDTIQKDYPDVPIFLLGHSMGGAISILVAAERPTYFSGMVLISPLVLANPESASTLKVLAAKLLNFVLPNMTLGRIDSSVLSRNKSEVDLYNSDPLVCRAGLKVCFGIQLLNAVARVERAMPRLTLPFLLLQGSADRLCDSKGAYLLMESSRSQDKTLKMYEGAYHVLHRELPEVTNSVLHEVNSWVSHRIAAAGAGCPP
Procedure: as §1, §2, §3, §4

[2] = Fluorescence excitation/absorption and emission maxima; format: physicochemical; conditions: PBS pH 7.4
Text: Figure S8. Fluorescence excitation and emission spectra of the utilized fluorescent reporters in PBS pH 7.4. Spectra l differences between probes carrying the same fluorophore were […]
Table S6. Fluorescence excitation, emission maxima, and Stokes-shift in PBS pH 7.4 for the used fluorophores, respectively. difference s between probes with the same fluorophore were […]
λmax Excitation [nm] λmax Emission [nm] Stokes-shift [nm]
(1 picture or pasted object on this page, not shown here)

[3] = Table 2, mean of three independent measurements ± SD, read-out: hMAGL IC50±SD
[4] = Table 2, mean of three independent measurements ± SD, read-out: mMAGL IC50±SD

For `CN(C)c1ccc2c(c1)[Si](C)(C)c1cc(N(C)C)ccc1C21OC(=O)c2ccc(C(=O)NCCCCCOc3ccccc3CC3CC4(C3)CN(C(=O)N3CC5(COC(=O)N5)C3)C4)cc21` (stereo not drawn) [Compound 10], which IC50 [1] is on record?
The IC50 was 285 ± 240 nM.

And the IC50 (human MAGL; Supporting Information Tables S1-S5, read-out: IC50 hMAGL)?
The IC50 was 0.187 nM.

What about the IC50 (human MAGL; [3]) of the same compound?
Its IC50 is 0.15 ± 0.11 nM.

And the IC50 (mouse MAGL; Supporting Information Tables S1-S5, read-out: IC50 mMAGL)?
The IC50 was 0.155 nM.

And the IC50 (mouse MAGL; [4])?
Its IC50 is 0.16 ± 0.09 nM.

And the “λmax Em (fluorescence emission maximum)” value [2]?
Its value is 673 nm.

And the “λmax Ex (fluorescence excitation maximum)” value [2]?
Its value is 654 nm.

What does the source list for `CN(C)c1ccc2c(c1)[Si](C)(C)c1cc(N(C)C)ccc1C21OC(=O)c2ccc(C(=O)NCCCCCOc3ccccc3CC3CC4(C3)CN(C(=O)OC(C(F)(F)F)C(F)(F)F)C4)cc21` (stereo not drawn) [Compound 12]?
IC50 [1]: > 1000 nM; IC50 (human MAGL; [3]): 1.15 ± 0.29 nM; IC50 (mouse MAGL; [4]): 1.35 ± 0.3 nM; λmax Em (fluorescence emission maximum) [2]: 673 nm; λmax Ex (fluorescence excitation maximum) [2]: 654 nm
